The source of these data is US6727270B2, “Pyrrolylalkylidene-hydrazinecarboximidamide derivatives as 5-hydroxytryptamine-6 ligands” (Wyeth, priority 2002, dated 2004).

Where a name gives a salt, the structure may show the parent alone.

The target of the first series is T1, human cloned 5-HT6 receptors (Homo sapiens, UniProt P50406).
T1 construct: expressed in transfected cells; host or cells: Hela cells
T1 sequence (P50406 whole entry): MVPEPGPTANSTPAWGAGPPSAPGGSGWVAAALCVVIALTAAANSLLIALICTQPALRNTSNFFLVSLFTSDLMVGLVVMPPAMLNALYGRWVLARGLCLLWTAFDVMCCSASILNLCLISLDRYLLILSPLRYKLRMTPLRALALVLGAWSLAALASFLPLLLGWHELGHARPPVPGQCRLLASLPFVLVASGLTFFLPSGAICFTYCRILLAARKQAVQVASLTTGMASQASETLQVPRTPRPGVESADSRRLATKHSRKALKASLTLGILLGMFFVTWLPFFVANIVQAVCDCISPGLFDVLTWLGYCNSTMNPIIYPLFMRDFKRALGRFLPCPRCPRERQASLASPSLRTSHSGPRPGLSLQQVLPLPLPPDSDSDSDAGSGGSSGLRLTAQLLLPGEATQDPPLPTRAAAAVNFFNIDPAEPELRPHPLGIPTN
Kind of series: 5-HT6 binding affinity, [3H]-LSD displacement on membranes of Hela cells expressing human cloned 5-HT6 receptors. The conditions noted are these: [3H]-LSD 3.0 nM, Hela cell membranes, 120 min at room temperature. How it is done: Comparative Evaluation of 5-HT6 Binding Affinity of Test Compounds
The affinity of test compounds for the serotonin 5-HT6 receptor is evaluated in the following manner. Cultured Hela cells expressing human cloned 5-HT6 receptors are harvested and centrifuged at low speed (1,000×g) for 10.0 min to remove the culture media. The harvested cells are suspended in half volume of fresh physiological phosphate buffered saline solution and recentrifuged at the same speed. This operation is repeated. The collected cells are then homogenized in ten volumes of 50 mM Tris.HCl (pH 7.4) and 0.5 mM EDTA. The homogenate is centrifuged at 40,000×g for 30.0 min and the precipitate is collected. The obtained pellet is resuspended in 10 volumes of Tris.HCl buffer and recentrifuged at the same speed. The final pellet is suspended in a small volume of Tris.HCl buffer and the tissue protein content is determined in aliquots of 10-25 μl volumes. Bovine Serum Albumin is used as the standard in the protein determination according to the method described in Lowry et al., J. Biol. Chem., 193:265 (1951). The volume of the suspended cell membranes is adjusted to give a tissue protein concentration of 1.0 mg/ml of suspension. The prepared membrane suspension (10 times concentrated) is aliquoted in 1.0 ml volumes and stored at −70° C. until used in subsequent binding experiments.
The reaction is allowed to proceed in the dark for 120 min at room temperature, at which time, the bound ligand-receptor complex is filtered off on a 96 well unifilter with a Packard Filtermate® 196 Harvester. The bound complex caught on the filter disk is allowed to air dry and the radioactivity is measured in a Packard TopCount® equipped with six photomultiplier detectors, after the addition of 40.0 μl Microscint®-20 scintillant to each shallow well. The unifilter plate is heat-sealed and counted in a PackardTopCount® with a tritium efficiency of 31.0%.
Binding in the presence of varying concentrations of test compound is expressed as a percentage of specific binding in the absence of test compound. The results are plotted as log % bound versus log concentration of test compound. […] A linear regression line of data points is plotted, from which the IC50 value is determined and the Ki value is determined based upon the following equation: […]
where L is the concentration of the radioactive ligand used and KD is the dissociation constant of the ligand for the receptor, both expressed in nM.
Turning to “2-{(E)-1-[1-(naphthylsulfonyl)-1H-pyrrol-3-yl]ethylidene}-1-hydrazine-carboximidamide [Example 16]”, affinity was put at a Ki of 2 nM.
On the same count and under the same terms, to `N=C(N)N/N=C1\CCCc2c1ccn2S(=O)(=O)c1ccccc1` [Example 7, 2-[1-(Phenylsulfonyl)-1,5,6,7-tetrahydro-4H-indol-4-ylidine]-1-hydrazinecarboximidamide Hydrochloride] belongs 37 nM.
`C/C(=N\NC(=N)N)c1c(C)cn(S(=O)(=O)c2ccccc2)c1C` [Example 13, 2-{(E)-1-[2,4-Dimethyl-1-(phenylsulfonyl)-1H-pyrrol-3-yl]ethylidine} hydrazinecarboximidamide Hydrochloride]: the inhibition constant (Ki) worked out at 6 nM.
On the same count and under the same terms, to `C/C(=N\NC(=N)N)c1ccn(S(=O)(=O)c2ccccc2)c1` [Example 14, 2-{(E)-1-[1-(phenylsulfonyl)-1H-pyrrol-3-yl]ethylidene}hydrazinecarboximidamide] belongs 1.5 nM; to `C/C(=N\NC(=N)N)c1ccn(S(=O)(=O)c2ccc(C)cc2)c1` [Example 15, 2-{(E)-1-[1-(4-methylphenylsulfonyl)-1H-pyrrol-3-yl]ethylidene}hydrazine-carboximidamide], 5.5 nM; to `C/C(=N\NC(=N)N)c1ccn(S(=O)(=O)c2sc3ccc(Cl)cc3c2C)c1` [Example 17], 32 nM.
`C/C(=N\NC(=N)N)c1ccn(S(=O)(=O)c2ccc(N)cc2)c1` [Example 18, 2-((E)-1-{1-[(4-aminophenyl)sulfonyl]-1H-pyrrol-3-yl}ethylidene)-1-hydrazine-carboximidamide]: the affinity, expressed as Ki, was 0.6 nM.
Still for that read-out and setting: with `C/C(=N\NC(=N)N)c1ccn(S(=O)(=O)c2sc(N)nc2C)c1` [Example 19, 2-((E)-1-{1-[(2-amino-4-methyl-1,3-thiazol-5-yl)sulfonyl]-1H-pyrrol-3-yl}ethylidene)-1-hydrazinecarboximidamide] the figure was 3.75 nM.

System in a further series: not given
Assay: not given
Settings: not given
Compound `C/C(=N\NC(=N)N)c1ccn(S(=O)(=O)c2ccccc2)c1` (as salt: hydrochloride) [Example 14, 2-{(E)-1-[1-(phenylsulfonyl)-1H-pyrrol-3-yl]ethylidene}hydrazinecarboximidamide] came in with a melting point of 220 to 221 °C.
Still for that read-out and setting: to `C/C(=N\NC(=N)N)c1ccn(S(=O)(=O)c2ccc(C)cc2)c1` (as salt: hydrochloride) [Example 15, 2-{(E)-1-[1-(4-methylphenylsulfonyl)-1H-pyrrol-3-yl]ethylidene}hydrazine-carboximidamide] belongs 277 to 279 °C.
`C/C(=N\NC(=N)N)c1ccn(S(=O)(=O)c2sc3ccc(Cl)cc3c2C)c1` (as salt: hydrochloride) [Example 17]: the melting point was 285 °C (dec.).
The same measure, in the same setting: with `C/C(=N\NC(=N)N)c1ccn(S(=O)(=O)c2ccc(N)cc2)c1` (as salt: hydrochloride) [Example 18, 2-((E)-1-{1-[(4-aminophenyl)sulfonyl]-1H-pyrrol-3-yl}ethylidene)-1-hydrazine-carboximidamide] the figure was 198 to 200 °C.
For `C/C(=N\NC(=N)N)c1ccn(S(=O)(=O)c2sc(N)nc2C)c1` (as salt: hydrochloride) [Example 19, 2-((E)-1-{1-[(2-amino-4-methyl-1,3-thiazol-5-yl)sulfonyl]-1H-pyrrol-3-yl}ethylidene)-1-hydrazinecarboximidamide], the melting point is 225 °C (dec.).
